Laboratory results taken from patent publication US20170340742A1, “A METHOD FOR DELIVERING A SUBSTANCE INTO CELLS” (TECHNISCHE UNIVERSITÄT DARMSTADT, priority 2014, published 2017).
No end group written: not given here. Ahx = NCCCCCC(=O)O

System: living cells
Test: Comparative test of cellular penetration of cell-penetrating compounds with and without mediator compounds at low and high pH
Format: cell-based
Set-up: key: −: no uptake detectable; +: low efficiency of uptake detectable; ++: moderate efficiency of uptake detectable; +++: strong de efficiency of uptake detectable; ++++: very strong efficiency of uptake detectable
Conditions: compound 2 μM, 30 min
Protocol: A comparative test of cellular penetration of different cell-penetrating compounds was performed in the presence and absence of different mediator compounds at low and high pH. The cell-penetrating compounds (2 μM) and the mediator compounds (6 μM) were mixed in Hepes buffers at low pH (6.5) and high pH (8.5).
The cell media (DMEM) was removed and exchanged by these solutions and incubated for 30 min. Then the solutions were removed and the cells were embedded back in cell culture media (DMEM) and imaged. The efficiency of uptake in the different conditions was determined.
The determined efficacy is depicted with increasing efficacy from “−” no uptake detectable, “+” low efficiency of uptake detectable, “++” moderate efficiency of uptake detectable, “+++” strong de efficiency of uptake detectable, “++++” very strong efficiency of uptake detectable.

Measured: Efficiency of uptake

TAMRA-Ahx-LGQQQPFPPQQPY ({TAMRA-Ahx}-LGQQQPFPPQQPY)
−: Mediator 1: Curcumin 6 μM, high pH of 8.5 | Mediator 1: Curcumin 6 μM, low pH of 6.5 | Mediator 2: Levothyroxine 6 μM, high pH of 8.5 | Mediator 2: Levothyroxine 6 μM, low pH of 6.5 | no mediator, high pH of 8.5 | no mediator, low pH of 6.5
